Measured values from patent publication US7629373B2, “Mitotic kinesin inhibitors” (Merck & Co. Inc., priority 2005, dated 2009).

Biological target: T1, human KSP motor domain (KSP(367H)) (Homo sapiens, UniProt P52732)
T1 construct: were used to amplify the motor domain and the neck linker region; made in house; host or cells: E. coli BL21 (DE3), pRSETa
T1 sequence (P52732 18-359 limits assumed): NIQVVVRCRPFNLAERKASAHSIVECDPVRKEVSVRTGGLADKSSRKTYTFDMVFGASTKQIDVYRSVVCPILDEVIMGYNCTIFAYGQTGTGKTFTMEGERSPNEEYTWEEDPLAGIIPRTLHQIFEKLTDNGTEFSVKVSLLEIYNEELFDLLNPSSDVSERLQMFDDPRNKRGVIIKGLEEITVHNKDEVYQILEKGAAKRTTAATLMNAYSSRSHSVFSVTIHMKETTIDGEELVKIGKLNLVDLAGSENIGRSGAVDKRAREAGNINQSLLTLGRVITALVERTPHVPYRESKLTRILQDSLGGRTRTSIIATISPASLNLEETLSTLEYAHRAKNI
Test: Kinesin ATPase In Vitro Assay
Type: biochemical
Settings: kinesin motor domain with microtubules, 1 mM ATP, 23° C.
From the text: I. Kinesin ATPase In Vitro Assay
Cloning and Expression of Human Poly-Histidine Tagged KSP Motor Domain (KSP(367H))
Plasmids for the expression of the human KSP motor domain construct were cloned by PCR using a pBluescript full length human KSP construct (Blangy et al., Cell, vol. 83, pp 1159-1169, 1995) as a template. The N-terminal primer 5′-[…] (SEQ. ID. NO.: 1) and the C-terminal primer 5′-[…] […] (SEQ. ID. NO.: 2) were used to amplify the motor domain and the neck linker region. The PCR products were digested with AseI and XhoI, ligated into the NdeI/XhoI digestion product of pRSETa (Invitrogen) and transformed into E. coli BL21 (DE3).
Cells were grown at 37° C. to an OD600 of 0.5. […]
The kinesin motor domain is incubated with microtubules, 1 mM ATP (1:1 MgCl2: Na-ATP), and compound at 23° C. in buffer containing 80 mM K-HEPES (pH 7.0), 1 mM EGTA, 1 mM DTT, 1 mM MgCl2, and 50 mM KCl. […] Free phosphate from the ATP hydrolysis reaction is measured via a quinaldine red/ammonium molybdate assay by adding a […] of quench C (e.g., to a mixture of 40 μl reaction volume+40 μl stop buffer is then added 120 μl quench C). […] Quench C is a 2:1 ratio of quench A:quench B The reaction is incubated for 5-10 minutes at 23° C., and the absorbance of the phospho-molybdate complex is measured at 540 nm.

For `CC(=O)N1N=C(c2cc(F)ccc2F)C[C@@]1(CC[C@H](N)CF)c1ccccc1` [Compound 2-8, [(1S)-3-[(5S)-1-Acetyl-3-(2,5-difluorophenyl)-5-phenyl-4,5-dihydro-1H-pyrazol-5-yl]-1-(fluoromethyl)propyl]amine], the IC50 was ≤ 50 µM.
In the case of `CC(=O)N1N=C(c2cc(F)ccc2F)C[C@@]1(CC[C@@H](N)CF)c1ccccc1` [Compound 2-7, [(1R)-3-[(5S)-1-Acetyl-3-(2,5-difluorophenyl)-5-phenyl-4,5′-dihydro-1H-pyrazol-5-yl]-1-(fluoromethyl)propyl]amine], the IC50 is reported as ≤ 50 µM.
